How the values were obtained:
Assay type in all cases: in vivo
velvetleaf = experiment: Test Example 4: herbicidal effect in foliage treatment; conditions: dose 3.2 g/a, three weeks after the application
Excerpt: (§1) Test on the Herbicidal Effect in Foliage Treatment
(§2) Sterilized diluvial soil was put in plastic boxes with a length of 21 cm, a width of 13 cm and a depth of 7 cm, and seeds of barnyardgrass, large crabgrass, giant foxtail, wild oat, blackgrass, velvetleaf, common ragweed, redroot pigweed, common lambsquater, posumbu knotweed, common chickweed, corn, soybean, rice, wheat and sugar beet were sown in spots and covered with an about 1.5 cm-thick soil layer. The boxes were placed in a greenhouse at 25 to 30° C. to grow the plants. After 14 days, emulsifiable concentrates containing compounds of the present invention formulated in accordance with Formulation Example 2 were uniformly applied to the foliage at predetermined doses through a small sprayer after diluted with water. Three weeks after the application, the herbicidal effects against various plants were determined on the same evaluation scale as in Test Example 1.
(§3) A: barnyardgrass, B: bulrush, C: ducksalad, D: large crabgrass, E: giant foxtail, F: wild oat, G: water foxtail, H: Italian ryegrass, I: velvetleaf, J: common ragweed, K: redroot pigweed, L: common lambsquater, M: posumbu knotweed, N: common chickweed, O: beadstraw, a: transplanted rice, b: corn, c: soybean, d: direct-seeded rice, e: wheat, f: sugar beet.
(§4) The doses (g/a) represents the amounts in g per 1 are (a) applied after adjustment of concentration adjustment.

redroot pigweed [1] = experiment: as above; conditions: dose 3.2 g/a, three weeks after the application
Excerpt: as §1, §2, §3, §4

common ragweed [2] = experiment: as above; conditions: dose 3.2 g/a, three weeks after the application
Excerpt: as §1, §2, §3, §4

Italian ryegrass [3] = experiment: as above; conditions: dose 3.2 g/a, three weeks after the application
Excerpt: as §1, §2, §3, §4

barnyardgrass [4] = experiment: as above; conditions: dose 3.2 g/a, three weeks after the application
Excerpt: as §1, §2, §3, §4

beadstraw = experiment: as above; conditions: dose 3.2 g/a, three weeks after the application
Excerpt: as §1, §2, §3, §4

common chickweed [5] = experiment: as above; conditions: dose 3.2 g/a, three weeks after the application
Excerpt: as §1, §2, §3, §4

water foxtail [6] = experiment: as above; conditions: dose 3.2 g/a, three weeks after the application
Excerpt: as §1, §2, §3, §4

giant foxtail [7] = experiment: as above; conditions: dose 3.2 g/a, three weeks after the application
Excerpt: as §1, §2, §3, §4

posumbu knotweed [8] = experiment: as above; conditions: dose 3.2 g/a, three weeks after the application
Excerpt: as §1, §2, §3, §4

common lambsquater [9] = experiment: as above; conditions: dose 3.2 g/a, three weeks after the application
Excerpt: as §1, §2, §3, §4

large crabgrass [10] = experiment: as above; conditions: dose 3.2 g/a, three weeks after the application
Excerpt: as §1, §2, §3, §4

ducksalad [11] = experiment: Test Example 2: herbicidal effects during the vegetation period under submerged conditions; conditions: treatment during the vegetation period under submerged conditions; dose 2.52 g/a
Experimental: (§5) Test on the Herbicidal Effects on Weeds During the Vegetation Period Under Submerged Conditions
(§6) Alluvial soil was put in 1/30000-are styrol cups and admixed with water so that it was submerged at a depth of 4 cm. In each cup, seeds of barnyardgrass, bulrush and ducksalad were sown together, and the cups were placed in a greenhouse at 25 to 30° C. to grow the plants. When the barnyardgrass, bulrush and ducksalad reached the 1- or 2-leaf stage, emulsifiable concentrates containing compounds of the present invention formulated in accordance with Formulation Example 2 were applied to the water surfaces at predetermined doses after diluted with water. Three weeks after the application, the herbicidal effects against various plants were determined on the same evaluation scale as in Test Example 1.
as §3, §4

bulrush [12] = experiment: as above; conditions: treatment during the vegetation period under submerged conditions; dose 2.52 g/a
Experimental: as §5, §6, §3, §4

barnyardgrass [13] = experiment: as above; conditions: treatment during the vegetation period under submerged conditions; dose 2.52 g/a
Experimental: as §5, §6, §3, §4

transplanted rice = experiment: Test Example 1: preemergence treatment under submerged conditions, effect on crop; conditions: dose 2.52 g/a
Excerpt: (§7) Test on the Herbicidal Effects in Preemergence Treatment on Weeds Under Submerged Conditions
(§8) Alluvial soil was put in 1/30000-are styrol cups and admixed with water so that it was submerged at a depth of 4 cm. In each cup, seeds of barnyardgrass, bulrush and ducksalad were sown together, and rice seedlings at the 2.5-leaf stage were transplanted. On the same day as the seeding, emulsifiable concentrates containing compounds of the present invention formulated in accordance with Formulation Example 2 were applied to the water surfaces at predetermined doses after diluted with water. The cups were placed in a greenhouse at 25 to 30° C. to grow the plants. Three weeks after the application, the herbicidal effects against various plants were determined on the following evaluation scale.
(§9) 5 mortality of 90% or above (nearly complete death)
(§10) 4 mortality of at least 70% and less than 90%
(§11) 3 mortality of at least 40% and less than 70%
(§12) 2 mortality of at least 20% and less than 40%
(§13) 1 mortality of at least 5% and less than 20%
(§14) 0 mortality of less than 5% (almost ineffective)
as §3, §4

ducksalad [14] = experiment: Test Example 1: herbicidal effects in preemergence treatment under submerged conditions; conditions: dose 2.52 g/a
Excerpt: as §7, §8, §9, §10, §11, §12, §13, §14, §3, §4

bulrush [15] = experiment: as above; conditions: dose 2.52 g/a
Excerpt: as §7, §8, §9, §10, §11, §12, §13, §14, §3, §4

barnyardgrass [16] = experiment: as above; conditions: dose 2.52 g/a
Excerpt: as §7, §8, §9, §10, §11, §12, §13, §14, §3, §4

redroot pigweed [17] = experiment: Test Example 3: herbicidal effects in soil treatment; conditions: dose 3.2 g/a
Excerpt: (§15) Test on the Herbicidal Effects in Soil Treatment
as §2, with “chickweed” for “chickweed,”, “Emulsifiable” for “The boxes were placed in a greenhouse at 25 to 30° C. to grow the plants. After 14 days, emulsifiable”, “soil surfaces” for “foliage”, “dilute” for “diluted”
as §3, §4

common ragweed [18] = experiment: as above; conditions: dose 3.2 g/a
Excerpt: as §15
as §2, with “chickweed” for “chickweed,”, “Emulsifiable” for “The boxes were placed in a greenhouse at 25 to 30° C. to grow the plants. After 14 days, emulsifiable”, “soil surfaces” for “foliage”, “dilute” for “diluted”
as §3, §4

Italian ryegrass [19] = experiment: as above; conditions: dose 3.2 g/a
Excerpt: as §15
as §2, with “chickweed” for “chickweed,”, “Emulsifiable” for “The boxes were placed in a greenhouse at 25 to 30° C. to grow the plants. After 14 days, emulsifiable”, “soil surfaces” for “foliage”, “dilute” for “diluted”
as §3, §4

barnyardgrass [20] = experiment: as above; conditions: dose 3.2 g/a
Excerpt: as §15
as §2, with “chickweed” for “chickweed,”, “Emulsifiable” for “The boxes were placed in a greenhouse at 25 to 30° C. to grow the plants. After 14 days, emulsifiable”, “soil surfaces” for “foliage”, “dilute” for “diluted”
as §3, §4

common chickweed [21] = experiment: as above; conditions: dose 3.2 g/a
Excerpt: as §15
as §2, with “chickweed” for “chickweed,”, “Emulsifiable” for “The boxes were placed in a greenhouse at 25 to 30° C. to grow the plants. After 14 days, emulsifiable”, “soil surfaces” for “foliage”, “dilute” for “diluted”
as §3, §4

water foxtail [22] = experiment: as above; conditions: dose 3.2 g/a
Excerpt: as §15
as §2, with “chickweed” for “chickweed,”, “Emulsifiable” for “The boxes were placed in a greenhouse at 25 to 30° C. to grow the plants. After 14 days, emulsifiable”, “soil surfaces” for “foliage”, “dilute” for “diluted”
as §3, §4

giant foxtail [23] = experiment: as above; conditions: dose 3.2 g/a
Excerpt: as §15
as §2, with “chickweed” for “chickweed,”, “Emulsifiable” for “The boxes were placed in a greenhouse at 25 to 30° C. to grow the plants. After 14 days, emulsifiable”, “soil surfaces” for “foliage”, “dilute” for “diluted”
as §3, §4

posumbu knotweed [24] = experiment: as above; conditions: dose 3.2 g/a
Excerpt: as §15
as §2, with “chickweed” for “chickweed,”, “Emulsifiable” for “The boxes were placed in a greenhouse at 25 to 30° C. to grow the plants. After 14 days, emulsifiable”, “soil surfaces” for “foliage”, “dilute” for “diluted”
as §3, §4

common lambsquater [25] = experiment: as above; conditions: dose 3.2 g/a
Excerpt: as §15
as §2, with “chickweed” for “chickweed,”, “Emulsifiable” for “The boxes were placed in a greenhouse at 25 to 30° C. to grow the plants. After 14 days, emulsifiable”, “soil surfaces” for “foliage”, “dilute” for “diluted”
as §3, §4

large crabgrass [26] = experiment: as above; conditions: dose 3.2 g/a
Excerpt: as §15
as §2, with “chickweed” for “chickweed,”, “Emulsifiable” for “The boxes were placed in a greenhouse at 25 to 30° C. to grow the plants. After 14 days, emulsifiable”, “soil surfaces” for “foliage”, “dilute” for “diluted”
as §3, §4

SMILES: CCOC(=O)N(c1ccccc1CN1OCC(C(F)(F)F)OC1=O)S(=O)(=O)C(F)(F)F (centres unmarked) [III-9]
- I: velvetleaf, herbicidal effect (velvetleaf): 3 (mortality of at least 40% and less than 70%)
- K: redroot pigweed, herbicidal effect (redroot pigweed [1]): 0 (mortality of less than 5% (almost ineffective))
- J: common ragweed, herbicidal effect (common ragweed [2]): 0 (mortality of less than 5% (almost ineffective))
- H: Italian ryegrass, herbicidal effect (Italian ryegrass [3]): 0 (mortality of less than 5% (almost ineffective))
- A: barnyardgrass, herbicidal effect (barnyardgrass [4]): 0 (mortality of less than 5% (almost ineffective))
- O: beadstraw, herbicidal effect (beadstraw): 3 (mortality of at least 40% and less than 70%)
- N: common chickweed, herbicidal effect (common chickweed [5]): 3 (mortality of at least 40% and less than 70%)
- G: water foxtail, herbicidal effect (water foxtail [6]): 5 (mortality of 90% or above (nearly complete death))
- E: giant foxtail, herbicidal effect (giant foxtail [7]): 0 (mortality of less than 5% (almost ineffective))
- M: posumbu knotweed, herbicidal effect (posumbu knotweed [8]): 2 (mortality of at least 20% and less than 40%)
- L: common lambsquater, herbicidal effect (common lambsquater [9]): 2 (mortality of at least 20% and less than 40%)
- D: large crabgrass, herbicidal effect (large crabgrass [10]): 0 (mortality of less than 5% (almost ineffective))
- C: ducksalad, herbicidal effect (evaluation scale 0-5) (ducksalad [11]): 4 (mortality of at least 70% and less than 90%)
- B: bulrush, herbicidal effect (evaluation scale 0-5) (bulrush [12]): 5 (mortality of 90% or above (nearly complete death))
- A: barnyardgrass, herbicidal effect (evaluation scale 0-5) (barnyardgrass [13]): 4 (mortality of at least 70% and less than 90%)
- a: transplanted rice, effect on crop (evaluation scale 0-5) (transplanted rice): 0 (mortality of less than 5% (almost ineffective))
- C: ducksalad, herbicidal effect (evaluation scale 0-5) (ducksalad [14]): 0 (mortality of less than 5% (almost ineffective))
- B: bulrush, herbicidal effect (evaluation scale 0-5) (bulrush [15]): 5 (mortality of 90% or above (nearly complete death))
- A: barnyardgrass, herbicidal effect (evaluation scale 0-5) (barnyardgrass [16]): 4 (mortality of at least 70% and less than 90%)
- herbicidal effect, K: redroot pigweed (redroot pigweed [17]): 0 (mortality of less than 5% (almost ineffective))
- herbicidal effect, J: common ragweed (common ragweed [18]): 0 (mortality of less than 5% (almost ineffective))
- herbicidal effect, H: Italian ryegrass (Italian ryegrass [19]): 0 (mortality of less than 5% (almost ineffective))
- herbicidal effect, A: barnyardgrass (barnyardgrass [20]): 2 (mortality of at least 20% and less than 40%)
- herbicidal effect, N: common chickweed (common chickweed [21]): 1 (mortality of at least 5% and less than 20%)
- herbicidal effect, G: water foxtail (water foxtail [22]): 5 (mortality of 90% or above (nearly complete death))
- herbicidal effect, E: giant foxtail (giant foxtail [23]): 2 (mortality of at least 20% and less than 40%)
- herbicidal effect, M: posumbu knotweed (posumbu knotweed [24]): 1 (mortality of at least 5% and less than 20%)
- herbicidal effect, L: common lambsquater (common lambsquater [25]): 3 (mortality of at least 40% and less than 70%)
- herbicidal effect, D: large crabgrass (large crabgrass [26]): 0 (mortality of less than 5% (almost ineffective))
